SMILES strings stand for the structures. Entries after “also recorded” stand apart in the source; their conditions may differ. Where a SMILES comes first, the peptide text is derived from it. Bridges are numbered along the chain shown (N, C = ends).

The results in this text go back to publication PMC8001506 (Marine Drugs, 2021).

Experiment [1] concerns the target human α9α10 nAChR (Homo sapiens, UniProt Q9GZZ6+Q9UGM1). Put plainly: cell-based. Type of experiment: cell-based.
Experiment [2] concerns the target rat α3β2 nAChR (Rattus norvegicus, UniProt P04757+P12390). Put plainly: cell-based.
For experiment [3], the target named is rat α4β2 nAChR (Rattus norvegicus, UniProt P09483+P12390). Put plainly: cell-based. Format: cell-based.
Chain of rat α4β2 nAChR (P09483 31-630 limits assumed): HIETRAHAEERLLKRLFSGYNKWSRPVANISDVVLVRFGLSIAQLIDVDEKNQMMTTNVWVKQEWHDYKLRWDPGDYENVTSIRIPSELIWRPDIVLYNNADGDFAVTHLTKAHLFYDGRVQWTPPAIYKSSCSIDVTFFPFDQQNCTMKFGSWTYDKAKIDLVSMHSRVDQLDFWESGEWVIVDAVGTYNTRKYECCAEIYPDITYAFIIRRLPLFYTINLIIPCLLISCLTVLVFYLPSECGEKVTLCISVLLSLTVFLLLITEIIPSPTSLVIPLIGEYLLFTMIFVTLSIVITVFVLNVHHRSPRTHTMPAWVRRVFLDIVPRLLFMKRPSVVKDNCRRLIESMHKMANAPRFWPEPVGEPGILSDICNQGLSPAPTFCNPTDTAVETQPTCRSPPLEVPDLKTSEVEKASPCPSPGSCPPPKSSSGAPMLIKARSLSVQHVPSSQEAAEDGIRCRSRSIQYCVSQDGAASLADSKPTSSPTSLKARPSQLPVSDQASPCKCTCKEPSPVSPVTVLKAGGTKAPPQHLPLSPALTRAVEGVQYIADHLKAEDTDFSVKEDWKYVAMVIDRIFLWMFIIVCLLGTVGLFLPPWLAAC
Chain of rat α4β2 nAChR (P12390 25-500 limits assumed): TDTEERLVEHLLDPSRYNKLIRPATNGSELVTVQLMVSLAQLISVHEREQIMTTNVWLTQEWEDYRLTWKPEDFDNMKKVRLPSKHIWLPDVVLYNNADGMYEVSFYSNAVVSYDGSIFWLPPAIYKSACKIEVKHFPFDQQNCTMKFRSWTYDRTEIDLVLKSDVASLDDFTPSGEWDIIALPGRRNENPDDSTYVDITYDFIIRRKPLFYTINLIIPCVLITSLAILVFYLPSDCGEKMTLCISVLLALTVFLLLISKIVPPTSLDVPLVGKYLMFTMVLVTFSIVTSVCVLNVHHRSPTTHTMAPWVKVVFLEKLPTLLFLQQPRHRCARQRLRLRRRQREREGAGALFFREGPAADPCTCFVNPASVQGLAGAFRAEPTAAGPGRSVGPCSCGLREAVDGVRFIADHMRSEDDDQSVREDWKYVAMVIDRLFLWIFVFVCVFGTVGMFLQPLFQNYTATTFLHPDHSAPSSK
The target in experiment [4] is rat α7 nAChR (Rattus norvegicus, UniProt Q05941). Put plainly: cell-based. Format: cell-based.
Chain of rat α7 nAChR (Q05941 23-502 limits assumed): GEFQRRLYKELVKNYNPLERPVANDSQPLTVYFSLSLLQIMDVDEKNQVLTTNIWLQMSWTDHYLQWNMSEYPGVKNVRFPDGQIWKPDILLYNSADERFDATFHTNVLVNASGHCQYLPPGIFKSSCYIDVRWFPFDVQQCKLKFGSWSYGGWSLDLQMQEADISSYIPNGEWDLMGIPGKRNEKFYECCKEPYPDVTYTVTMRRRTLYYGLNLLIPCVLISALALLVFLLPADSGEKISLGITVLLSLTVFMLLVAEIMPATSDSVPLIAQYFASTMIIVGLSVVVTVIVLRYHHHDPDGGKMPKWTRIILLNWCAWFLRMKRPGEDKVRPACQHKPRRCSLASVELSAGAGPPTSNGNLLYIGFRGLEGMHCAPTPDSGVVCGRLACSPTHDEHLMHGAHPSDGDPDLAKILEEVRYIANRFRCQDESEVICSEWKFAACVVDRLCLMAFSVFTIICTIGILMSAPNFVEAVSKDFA
Experiment [5] has as its target rat α4β4 nAChR (Rattus norvegicus, UniProt P09483+P12392). Put plainly: cell-based. Format: cell-based.
The target of experiment [6] is rat α2β2 nAChR (Rattus norvegicus, UniProt P12389+P12390). Put plainly: cell-based. Format: cell-based.
Chain of rat α2β2 nAChR (P12389 28-511 limits assumed): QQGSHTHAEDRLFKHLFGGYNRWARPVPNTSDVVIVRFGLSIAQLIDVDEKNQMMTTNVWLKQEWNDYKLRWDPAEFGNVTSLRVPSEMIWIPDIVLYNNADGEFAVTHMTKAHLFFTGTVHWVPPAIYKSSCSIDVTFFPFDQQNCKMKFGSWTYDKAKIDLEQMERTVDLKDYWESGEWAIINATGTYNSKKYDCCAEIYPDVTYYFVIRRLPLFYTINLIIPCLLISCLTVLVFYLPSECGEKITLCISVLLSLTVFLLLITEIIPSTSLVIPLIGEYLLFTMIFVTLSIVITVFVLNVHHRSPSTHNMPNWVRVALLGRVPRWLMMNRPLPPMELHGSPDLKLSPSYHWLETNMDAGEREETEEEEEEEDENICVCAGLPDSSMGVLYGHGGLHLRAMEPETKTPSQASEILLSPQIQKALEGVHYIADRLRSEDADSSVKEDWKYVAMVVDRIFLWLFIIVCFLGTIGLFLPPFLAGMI
Chain of rat α2β2 nAChR (P12390 25-500 limits assumed): as the sequence (P12390 25-500 limits assumed) above
For experiment [7], the system named is common mammalian nAChR combinations. Type of experiment: cell-based.
For experiment [8], the target named is rat α3β4 nAChR (Rattus norvegicus, UniProt P04757+P12392). Put plainly: cell-based. Format: cell-based.
Chain of rat α3β4 nAChR (P04757 26-499 limits assumed): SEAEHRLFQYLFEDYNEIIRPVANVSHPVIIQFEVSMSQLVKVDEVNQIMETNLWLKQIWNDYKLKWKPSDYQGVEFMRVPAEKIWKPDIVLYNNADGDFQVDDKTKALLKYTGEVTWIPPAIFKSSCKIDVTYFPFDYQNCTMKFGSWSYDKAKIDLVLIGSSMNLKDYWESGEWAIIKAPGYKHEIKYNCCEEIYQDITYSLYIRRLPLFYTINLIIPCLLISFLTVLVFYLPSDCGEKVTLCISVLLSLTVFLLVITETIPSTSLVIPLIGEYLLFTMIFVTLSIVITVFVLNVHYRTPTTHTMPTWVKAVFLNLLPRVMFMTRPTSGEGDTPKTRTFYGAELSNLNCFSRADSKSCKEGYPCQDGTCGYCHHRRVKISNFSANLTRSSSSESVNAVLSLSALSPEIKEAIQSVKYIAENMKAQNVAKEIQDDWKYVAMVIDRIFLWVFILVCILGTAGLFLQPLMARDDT
Chain of rat α3β4 nAChR (P12392 21-495 limits assumed): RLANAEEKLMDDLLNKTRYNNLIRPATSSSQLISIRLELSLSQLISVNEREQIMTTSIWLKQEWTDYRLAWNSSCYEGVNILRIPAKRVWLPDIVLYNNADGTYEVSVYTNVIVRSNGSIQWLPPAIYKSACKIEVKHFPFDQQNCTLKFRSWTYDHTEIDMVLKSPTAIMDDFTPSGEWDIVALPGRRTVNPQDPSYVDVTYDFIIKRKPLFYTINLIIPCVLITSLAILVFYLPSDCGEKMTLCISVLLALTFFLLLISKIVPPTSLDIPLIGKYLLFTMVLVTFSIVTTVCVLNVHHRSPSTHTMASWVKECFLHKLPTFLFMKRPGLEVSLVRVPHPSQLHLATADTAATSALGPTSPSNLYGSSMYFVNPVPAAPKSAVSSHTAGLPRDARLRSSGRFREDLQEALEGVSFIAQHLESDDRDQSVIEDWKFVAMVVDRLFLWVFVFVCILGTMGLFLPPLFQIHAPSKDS
For experiment [9], the target named is rat α2β4 nAChR (Rattus norvegicus, UniProt P12389+P12392). Put plainly: cell-based. Format: cell-based.
Chain of rat α2β4 nAChR (P12389 28-511 limits assumed): as the sequence (P12389 28-511 limits assumed) above
Chain of rat α2β4 nAChR (P12392 21-495 limits assumed): as the sequence (P12392 21-495 limits assumed) above
Experiment [10] addresses rat α6/α3β2β3 nAChR (Rattus norvegicus, UniProt P04757+P12390+P12391+P43143). Put plainly: cell-based.

Chain of human α9α10 nAChR (Q9UGM1 26-479 limits assumed): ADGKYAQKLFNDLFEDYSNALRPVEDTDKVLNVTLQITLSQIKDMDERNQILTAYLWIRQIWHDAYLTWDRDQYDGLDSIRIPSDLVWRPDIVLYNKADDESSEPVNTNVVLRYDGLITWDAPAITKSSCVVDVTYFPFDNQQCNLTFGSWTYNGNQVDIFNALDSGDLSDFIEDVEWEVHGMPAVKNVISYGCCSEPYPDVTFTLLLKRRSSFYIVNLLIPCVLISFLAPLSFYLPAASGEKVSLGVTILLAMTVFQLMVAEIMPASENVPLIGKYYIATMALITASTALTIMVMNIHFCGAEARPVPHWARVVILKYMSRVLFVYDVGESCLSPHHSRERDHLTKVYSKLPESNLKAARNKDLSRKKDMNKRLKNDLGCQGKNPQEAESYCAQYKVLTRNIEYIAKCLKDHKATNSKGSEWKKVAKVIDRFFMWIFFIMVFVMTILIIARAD
Chain of human α9α10 nAChR (Q9GZZ6 25-450 limits assumed): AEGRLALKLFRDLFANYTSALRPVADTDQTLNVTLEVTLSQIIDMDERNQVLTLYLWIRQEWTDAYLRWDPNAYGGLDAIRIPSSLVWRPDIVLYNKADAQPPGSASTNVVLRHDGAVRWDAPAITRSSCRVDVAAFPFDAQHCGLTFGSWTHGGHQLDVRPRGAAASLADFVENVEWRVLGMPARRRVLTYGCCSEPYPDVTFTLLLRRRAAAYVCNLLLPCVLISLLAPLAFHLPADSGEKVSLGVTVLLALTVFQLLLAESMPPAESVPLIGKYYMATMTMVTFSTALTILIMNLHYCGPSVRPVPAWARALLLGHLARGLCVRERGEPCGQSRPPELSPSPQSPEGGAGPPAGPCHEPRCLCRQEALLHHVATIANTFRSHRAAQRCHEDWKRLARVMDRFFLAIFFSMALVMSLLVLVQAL
Chain of rat α4β4 nAChR (P09483 31-630 limits assumed): as the sequence (P09483 31-630 limits assumed) above
Chain of rat α4β4 nAChR (P12392 21-495 limits assumed): as the sequence (P12392 21-495 limits assumed) above
Chain of rat α3β2 nAChR (P04757 26-499 limits assumed): as the sequence (P04757 26-499 limits assumed) above
Chain of rat α3β2 nAChR (P12390 25-500 limits assumed): as the sequence (P12390 25-500 limits assumed) above

`CC(C)C[C@@H]1NC(=O)[C@H](CC(=O)O)NC(=O)[C@H](CO)NC(=O)[C@H](Cc2c[nH]cn2)NC(=O)[C@H](CCC(N)=O)NC(=O)[C@H](C(C)C)NC(=O)[C@H](CCC(N)=O)NC(=O)[C@@H]2CSSC[C@H](N)C(=O)N[C@@H](CSSC[C@@H](C(=O)O)NC1=O)C(=O)N[C@@H](CO)C(=O)N[C@@H](CC(N)=O)C(=O)N1CCC[C@H]1C(=O)N[C@@H](C)C(=O)N2` [Δ-CIC] (H-CCSNPACQVQHSDLC-OH; disulfide 1-7, 2-15): the IC50 is above 10 µM in experiment [1]; 4.56 µM in experiment [2]; above 10 µM in experiment [3]; above 10 µM in experiment [4]; above 10 µM in experiment [5]; above 10 µM in experiment [6]. Moreover, the IC50 in [8] is above 10 µM; in experiment [9], above 10 µM; in experiment [10], 1.08 µM. Further, the “inhibition (in words)” value in experiment [1], in [3], in experiment [4], in [5], in experiment [6] and in experiment [8] was “no inhibition was detected; also recorded: No effects were observed” in each case. In experiment [9], the “inhibition (in words)” value was “no inhibition was detected; also recorded: No effects were observed”. The “dissociation behavior, CIC versus Δ-CIC” value in [7] was “no difference in dissociation behavior”.

The IC50 is the concentration at which inhibition is half-maximal. Low values mean inhibition by little substance, high ones a need for much substance.
